# Reference: US7192981B2, “3,4-dihydroxyhydrocinnamic acid derivative” (Bionutrigen Co., Ltd., priority 2005, dated 2007)
# Columns and labels:
# IRS-1 = assay: Phosphorylation of IRS-1 in adipocytes, immunoprecipitation and western blot; assay type: cell-based; settings: SD rat adipocytes, DHH105 2 h, vs untreated control
# Method: Adipocytes treated with DHH105 for 2 h or insulin for 10 min were homogenized in 5 ml lysis buffer (20 mM Tris, pH 7.4, 1% SDS, 10% glycerol, 150 mM NaCl, 2 mM EDTA, 20 mM NaF, 1 mM NaVO4, 2 mM sodium pyrophosphate, protease inhibitor cocktail, and phosphatase inhibitor cocktail) with a teflon pestle (15 strokes). Homogenized adipocytes were sonicated for 3 min and solubilized for 30 min. The homogenate was centrifuged at 3,000 g for 10 min at 4° C. The protein concentration of the lysate was determined by the Bradford method. After dilution (1 μg/μl protein concentration), the lysates were incubated with anti-insulin receptor-β (IR-β) antibody (Upstate Biotech, Charlottesville, Va.) or anti-IRS-1 antibody (Upstate Biotech) overnight at 4° C. Protein A Sepharose beads (100 μl, Amersham Pharmacia Biotech) were added and the mixture was gently rocked for 2 h at 4° C. […] The membranes were washed and the immunoreactive proteins were detected with an enhanced chemoluminescence western blot detection kit (Amersham Pharmacia Biotech). To examine whether DHH105 treatment increases autophosphorylation of the insulin receptor and its tyrosine kinase activity, the phosphorylation of IR-β and IRS-1 were measured by immunoprecipitation and western blot in DHH105-treated adipocytes from SD rats. […]
# PI3-kinase = PI3-kinase assay in adipocyte lysate; assay type: cell-based, rat; settings: adipocytes, 500 μM, 2 h
# Method: Phosphatidylinositide (PI) in DMSO (1 mg/ml) was mixed with an equal volume of buffer A (10 mM HEPES, 100 mM NaCl, 1 mM EGTA, 0.03% NP-40, pH 7.0) and then 10 μl was mixed with an equal volume of buffer B (500 μM [γ-^32P] ATP (10 μCi; Amersham Pharmacia Biotech), 25 mM MgCl2, 15 mM 2-(N-morpholine)ethansulfonic acid, pH 6.8). This mixture was added to 30 μl of adipocyte lysate and incubated for 5 min at room temperature. The kinase reaction was stopped by adding 80 μl of 1 N HCl. A mixture of chloroform and ethanol (1:1, 160 μl) was added to the reaction mixture followed by centrifugation at full speed in a microcentrifuge for 2 min, and 40 μl of the organic phase was extracted. The organic phase was spotted on aluminum-backed silica gel 60 thin layer chromatography (TLC) plates that were pre-soaked in developing solvent (chloroform:methanol:2.2 M NH4OH, 9:7:2), run for 3 h in a TLC chamber with the developing solvent, and air-dried. The amount of phosphoinositides was detected by autoradiography.
# In FIG. 7A, the intensity of the PIP3 band was normalized with that of PI, and the relative amount of PIP3 was calculated by (normalized band intensity of sample)/(normalized band intensity of control) (lower panel). Data are means±SEM of three independent experiments.
# insulin receptor = target: T1, insulin receptor (Rattus norvegicus, UniProt P15127); assay: Insulin binding assay ([125I]-insulin binding to adipocytes); settings: [125I]-insulin 0.1 ng/ml, 2 h
# T1 construct: endogenous in cells; host or cells: isolated primary adipocytes (rat)
# T1 sequence (P15127 27-759 limits assumed): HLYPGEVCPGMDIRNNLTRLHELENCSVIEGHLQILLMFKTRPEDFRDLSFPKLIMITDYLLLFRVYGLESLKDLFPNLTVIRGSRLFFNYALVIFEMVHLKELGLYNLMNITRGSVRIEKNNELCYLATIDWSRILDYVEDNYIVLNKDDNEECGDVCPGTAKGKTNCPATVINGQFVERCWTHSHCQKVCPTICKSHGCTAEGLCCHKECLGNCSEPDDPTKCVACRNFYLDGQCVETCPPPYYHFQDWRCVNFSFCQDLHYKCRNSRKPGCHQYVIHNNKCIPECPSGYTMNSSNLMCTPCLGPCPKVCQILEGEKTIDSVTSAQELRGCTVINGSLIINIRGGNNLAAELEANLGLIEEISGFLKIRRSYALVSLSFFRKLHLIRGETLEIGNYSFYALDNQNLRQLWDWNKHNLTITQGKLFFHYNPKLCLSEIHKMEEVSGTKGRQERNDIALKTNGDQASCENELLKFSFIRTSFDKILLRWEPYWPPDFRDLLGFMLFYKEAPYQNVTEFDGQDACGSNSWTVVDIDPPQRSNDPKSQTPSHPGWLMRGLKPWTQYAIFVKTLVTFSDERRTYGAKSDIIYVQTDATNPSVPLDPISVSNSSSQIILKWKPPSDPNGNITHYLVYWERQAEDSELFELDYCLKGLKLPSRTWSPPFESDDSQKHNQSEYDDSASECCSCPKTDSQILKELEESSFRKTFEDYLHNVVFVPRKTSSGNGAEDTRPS
# T1 sequence (P15127 764-1383 partner limits assumed): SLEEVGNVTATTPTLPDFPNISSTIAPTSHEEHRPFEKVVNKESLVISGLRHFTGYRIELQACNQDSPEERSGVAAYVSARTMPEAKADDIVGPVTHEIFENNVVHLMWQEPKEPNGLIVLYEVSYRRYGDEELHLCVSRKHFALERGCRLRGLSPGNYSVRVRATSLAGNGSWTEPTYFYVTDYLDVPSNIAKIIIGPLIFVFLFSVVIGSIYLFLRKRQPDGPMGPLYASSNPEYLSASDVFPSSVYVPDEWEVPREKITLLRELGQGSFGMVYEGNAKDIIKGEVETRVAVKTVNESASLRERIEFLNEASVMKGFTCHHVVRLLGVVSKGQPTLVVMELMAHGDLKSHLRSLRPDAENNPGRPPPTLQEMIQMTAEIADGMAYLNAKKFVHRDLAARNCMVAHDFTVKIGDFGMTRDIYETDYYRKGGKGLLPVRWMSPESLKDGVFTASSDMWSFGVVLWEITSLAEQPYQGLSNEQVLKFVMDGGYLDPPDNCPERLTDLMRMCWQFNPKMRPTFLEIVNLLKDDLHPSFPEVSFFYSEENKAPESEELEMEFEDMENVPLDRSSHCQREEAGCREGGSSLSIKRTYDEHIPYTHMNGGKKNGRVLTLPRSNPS
# Method: To examine whether DHH105 binds to the insulin receptor and activates the insulin signal transduction pathway, [^125I]-insulin binding to adipocytes was measured in the presence of DHH105. Isolated adipocytes were incubated in KRH buffer for 1 h to remove residual insulin. Adipocytes were then washed three times and resuspended in KRH buffer. Adipocytes (2×10^5 cells/vial) were incubated with DHH105 or insulin in the presence of [^125I]-insulin (0.1 ng/ml; Perkin-Elmer Life and Analytical Sciences, Downers Grove, Ill.) for 2 h at 16° C. in a shaking bath. To measure non-specific binding, 50 μg of unlabelled insulin (Sigma) were added to cells along with [^125I]-insulin. After incubation, adipocytes were harvested by silicon oil and the radioactivity was measured.
# Akt/PKB = Akt/PKB phosphorylation in adipocytes, western blot; assay type: cell-based, rat; settings: 500 μM, 4 h
# Method: Proteins were separated by 10% SDS-PAGE and transferred to a polyvinyl difluoride membrane (Amersham Pharmacia Biotech). After transfer, the membranes were blocked with 5% skim milk in Tris-buffered saline with Tween 20 (TBST; 0.05% Tween 20, 200 mM Tris-HCl, 500 mM NaCl, pH 7.5) for 1 h at room temperature. The membranes were incubated with anti-IR-β, anti-IRS-1, anti-phosphotyrosine, or anti-p85 PI3-kinase (Upstate Biotech); anti-Akt/PKB or anti-phospho-Akt/PKB (Cell Signalling Technology, Beverly, Mass.); anti-GLUT4 (Santa Cruz Biotechnology Inc., Santa Cruz, Calif.); or anti-β actin (Sigma) antibody in 5% bovine serum albumin in TBST for 1 h at room temperature or overnight at 4° C. After washing, the membranes were incubated with secondary antibodies labeled with horseradish peroxidase (HRP) in 5% skim milk in TBST for 1 h. The membranes were washed and the immunoreactive proteins were detected with an enhanced chemoluminescence western blot detection kit (Amersham Pharmacia Biotech).
smiles,measurement,setting,value
"O=C(CCc1ccc(O)c(O)c1)OCc1cccc2ccccc12 [DHH105, 3,4-dihydroxyhydrocinnamic acid naphthalene methyl ester]",phosphorylation of IRS-1,IRS-1,increased
same,PI3-kinase activity (conversion of PI to PIP3),PI3-kinase,significantly increased
same,"binding of [125I]-insulin to adipocytes, DHH105 together with insulin",insulin receptor; 500 μM DHH105 plus insulin,further inhibited
same,binding of [125I]-insulin to adipocytes,insulin receptor; 16° C.,inhibited
same,amount of Akt/PKB protein,Akt/PKB,did not change
same,phosphorylated Akt/PKB,Akt/PKB; vs untreated control,significantly increased
